Values quoted from earlier work, collected in patent US20120171125A1, “Methods for Enhancing the Cognitive Function” (UCB PHARMA, S.A., priority 2009, published 2012).

What was measured:
[1] = tested on: epilepsy; settings: in vivo
[2] = biological target: SV2A (Homo sapiens, UniProt Q7L0J3)
[3] = tested on: cognitive function; settings: animals and humans

Sequence of SV2A (Q7L0J3 whole entry, species assumed): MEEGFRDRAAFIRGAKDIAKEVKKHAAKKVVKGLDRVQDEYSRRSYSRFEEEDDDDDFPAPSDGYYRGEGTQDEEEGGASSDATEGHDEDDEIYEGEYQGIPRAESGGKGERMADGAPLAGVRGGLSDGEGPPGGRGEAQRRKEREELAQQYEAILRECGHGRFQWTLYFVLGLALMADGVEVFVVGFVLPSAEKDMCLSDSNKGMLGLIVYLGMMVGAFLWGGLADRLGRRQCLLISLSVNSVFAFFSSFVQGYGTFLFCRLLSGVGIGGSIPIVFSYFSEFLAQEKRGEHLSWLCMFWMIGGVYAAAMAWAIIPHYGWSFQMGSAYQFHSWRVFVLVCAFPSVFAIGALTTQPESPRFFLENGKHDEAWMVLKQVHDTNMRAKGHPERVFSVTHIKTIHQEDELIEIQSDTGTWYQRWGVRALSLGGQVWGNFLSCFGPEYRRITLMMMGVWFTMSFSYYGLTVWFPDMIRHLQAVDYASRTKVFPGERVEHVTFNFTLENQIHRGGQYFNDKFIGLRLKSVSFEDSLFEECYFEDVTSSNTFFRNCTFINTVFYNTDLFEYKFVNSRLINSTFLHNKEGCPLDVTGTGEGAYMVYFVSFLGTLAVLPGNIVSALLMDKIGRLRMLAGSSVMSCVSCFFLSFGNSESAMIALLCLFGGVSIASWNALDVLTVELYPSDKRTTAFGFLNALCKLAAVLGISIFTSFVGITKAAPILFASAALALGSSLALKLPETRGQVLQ

| SMILES | antiepileptic activity [1] | affinity / binding to SV2A [2] | impact on the cognitive function [3] |
| --- | --- | --- | --- |
| CC[C@H](C(N)=O)N1CCCC1=O [(R)-(+)-alpha-ethyl-2-oxo-1-pyrrolidine acetamide] | completely lacks activity | – | – |
| CC[C@@H](C(N)=O)N1C[C@H](C=C(F)F)CC1=O [Seletracetam, (2S)-2-[(4S)-4-(2,2-difluorovinyl)-2-oxo-pyrrolidinyl]butanamide] | very potent antiepileptic activities | potent affinity to SV2A | – |
| CC[C@@H](C(N)=O)N1CCCC1=O [levetiracetam, (S)-(−)-alpha-ethyl-2-oxo-1-pyrrolidine acetamide] | – | – | no impact on the cognitive function |
| NC(=O)CN1CCCC1=O [piracetam] | – | does not bind to SV2A | – |
| CCC[C@@H]1CC(=O)N([C@@H](CC)C(N)=O)C1 [brivaracetam, (2S)-2-[(4R)-2-oxo-4-propyl-pyrrolidin-1-yl]butanamide] | very potent antiepileptic activities | potent affinity to SV2A | – |
